Laboratory results: patent publication US20070111929A1, “Methods for the treatment of anxiety and for identification of anxiolytic agents” (Wyeth, priority 2005, published 2007)

Experiments:
[1] = target: T1, AT4 receptor (Mus musculus, UniProt Q8C129); assay: mouse 4-plate model of anxiety, AT4 alone (Example 1); type: in vivo; settings: acute; for number of punished crossings compared to vehicle: subcutaneous, 30 min before test, male Swiss Webster mice
T1 construct: from tissue; host or cells: whole living Swiss Webster mouse (in vivo behavioural test)
T1 sequence (Q8C129 1-1025): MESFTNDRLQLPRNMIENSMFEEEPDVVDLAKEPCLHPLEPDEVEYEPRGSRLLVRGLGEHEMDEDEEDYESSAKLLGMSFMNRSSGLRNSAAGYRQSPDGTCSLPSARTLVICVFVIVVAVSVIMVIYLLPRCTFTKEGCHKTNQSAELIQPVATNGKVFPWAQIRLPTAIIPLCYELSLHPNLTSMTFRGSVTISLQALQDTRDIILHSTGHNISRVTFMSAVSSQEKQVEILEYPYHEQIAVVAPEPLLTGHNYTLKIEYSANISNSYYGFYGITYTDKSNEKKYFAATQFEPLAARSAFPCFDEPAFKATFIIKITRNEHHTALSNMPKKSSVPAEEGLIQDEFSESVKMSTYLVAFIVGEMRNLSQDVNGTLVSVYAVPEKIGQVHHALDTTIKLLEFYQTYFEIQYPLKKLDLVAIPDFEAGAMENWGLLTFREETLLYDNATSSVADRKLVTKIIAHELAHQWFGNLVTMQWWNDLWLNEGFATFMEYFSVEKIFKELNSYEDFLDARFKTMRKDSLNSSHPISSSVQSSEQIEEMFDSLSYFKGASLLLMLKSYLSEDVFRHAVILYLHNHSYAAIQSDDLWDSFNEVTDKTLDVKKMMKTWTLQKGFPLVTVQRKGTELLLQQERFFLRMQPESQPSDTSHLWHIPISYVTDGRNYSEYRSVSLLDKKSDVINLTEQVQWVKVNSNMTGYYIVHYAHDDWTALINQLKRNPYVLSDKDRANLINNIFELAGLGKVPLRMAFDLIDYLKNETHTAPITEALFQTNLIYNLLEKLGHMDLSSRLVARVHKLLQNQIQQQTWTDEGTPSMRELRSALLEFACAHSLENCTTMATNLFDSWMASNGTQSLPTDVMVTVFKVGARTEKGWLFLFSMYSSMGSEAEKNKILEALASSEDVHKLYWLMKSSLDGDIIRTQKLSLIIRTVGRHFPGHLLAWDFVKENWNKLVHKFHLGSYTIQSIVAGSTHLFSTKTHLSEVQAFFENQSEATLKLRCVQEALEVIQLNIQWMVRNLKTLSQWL
Description: Male Swiss Webster mice weighing 18-24 g were used in the 4 plate studies. Animals were housed in groups of 15 in an AAALAC-accredited facility (Wyeth Research, Princeton, N.J.) with food and water available ad libitum. Animals were maintained on a 12-hour light/dark cycle (lights on at 0600) with all studies performed during the light phase. On the day of experiments, mice were injected with AT4 (0, 1, 3 and 10 mg/kg) 30 minutes before the start of the study. Initially, mice were individually placed in a plexiglass cage (18×25×16 cm) with a floor consisting of four rectangular metal plates (8×11 cm), which are wired to a shock generator (Med Associates). In each experiment, mice were placed into the chamber and given an 18-sec habituation period, which was followed by a 1-min test session. After the habituation period, an electric shock (0.8 mA) was delivered for 3.0 sec when mice crossed from one plate to another. The crossing from one plate to the next is referred to as a “punished crossing.” The number of punished crossings during a 1-min test period was recorded by a computer. The mean number of punished crossings for each group was expressed as a percentage of the value observed in the control animals. Data were subjected to an overall one-way analysis of variance (ANOVA) and post-hoc comparisons were made by a contrast using least squares. Significant differences in treatment occurred when p<0.05 compared to vehicle.

[2] = target: T2, oxytocin receptor (Mus musculus, UniProt P97926); assay: mouse 4-plate model, AT4 with the oxytocin receptor antagonist WAY-162720 (Example 2); type: in vivo; settings: AT4 3 mg/kg alone, acute, 30 min before test
T2 construct: from tissue; host or cells: whole living Swiss Webster mouse (in vivo behavioural test)
T2 sequence (P97926 1-388): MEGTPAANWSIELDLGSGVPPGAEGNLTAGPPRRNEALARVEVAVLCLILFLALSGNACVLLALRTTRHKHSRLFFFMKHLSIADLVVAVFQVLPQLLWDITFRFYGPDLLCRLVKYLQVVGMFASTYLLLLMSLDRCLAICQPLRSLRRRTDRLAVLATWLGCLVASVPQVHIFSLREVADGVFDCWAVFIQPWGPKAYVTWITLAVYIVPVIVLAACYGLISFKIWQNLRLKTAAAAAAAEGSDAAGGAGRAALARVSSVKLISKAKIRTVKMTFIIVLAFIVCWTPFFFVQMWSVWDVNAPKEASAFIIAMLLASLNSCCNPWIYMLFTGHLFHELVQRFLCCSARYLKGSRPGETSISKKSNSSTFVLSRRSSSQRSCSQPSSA
Description: Male Swiss Webster mice weighing 18-24 g were used in the 4 plate studies. […] Animals were maintained on a 12-hour light/dark cycle (lights on at 0600) with all studies performed during the light phase. On the day of experiments, mice were injected with AT4 (0, 1, 3 and 10 mg/kg) 30 minutes before the start of the study. Initially, mice were individually placed in a plexiglass cage (18×25×16 cm) with a floor consisting of four rectangular metal plates (8×11 cm), which are wired to a shock generator (Med Associates). In each experiment, mice were placed into the chamber and given an 18-sec habituation period, which was followed by a 1-min test session. After the habituation period, an electric shock (0.8 mA) was delivered for 3.0 sec when mice crossed from one plate to another. The crossing from one plate to the next is referred to as a “punished crossing.” The number of punished crossings during a 1-min test period was recorded by a computer. […] Data were subjected to an overall one-way analysis of variance (ANOVA) and post-hoc comparisons were made by a contrast using least squares. Significant differences in treatment occurred when p<0.05 compared to vehicle.
For these studies, the same 4-plate procedures were used as described in Example 1, above. […] A 3-sec time followed the delivery of each shock and a computer recorded the number of punished crossings during a 1-min test period. […]

number of punished crossings compared to vehicle ([1]; AT4 3 mg/kg): significantly (p<0.05) increased
number of punished crossings compared to vehicle ([1]; AT4 10 mg/kg): significantly (p<0.05) increased
anxiolytic-like effect in the 4-plate model, dose dependence ([1]; AT4 1, 3 and 10 mg/kg subcutaneous, FIG. 1): dose-dependent
number of punished crossings compared to vehicle control [2]: increased
Compound: CC[C@H](C)[C@H](NC(=O)[C@H](Cc1ccc(O)cc1)NC(=O)[C@@H](N)C(C)C)C(=O)N[C@@H](Cc1cnc[nH]1)C(=O)N1CCC[C@H]1C(=O)N[C@@H](Cc1ccccc1)C(=O)O [AT4, Val-Tyr-Ile-His-Pro-Phe]
